# Results as given in patent US20240150301A1, “METHODS OF MODULATING ANDROGEN RECEPTOR CONDENSATES” (ETERN BIOPHARMA (SHANGHAI) CO., LTD., priority 2021, published 2024).
# “Also recorded” adds a separate entry of the source.
# How the values were obtained:
# AR F877L/T878A = target: T1, AR F877L/T878A (Homo sapiens, UniProt P10275, F877L/T878A); assay: Live-cell imaging of AR puncta (LLPS) in LNCaP cells, AR F877L/T878A-mEGFP; assay type: cell-based; conditions: 10 μM compound, 1 nM DHT
# T1 construct: expressed in transfected cells; host or cells: LNCaP
# T1 sequence (P10275 1-920 F877L/T878A): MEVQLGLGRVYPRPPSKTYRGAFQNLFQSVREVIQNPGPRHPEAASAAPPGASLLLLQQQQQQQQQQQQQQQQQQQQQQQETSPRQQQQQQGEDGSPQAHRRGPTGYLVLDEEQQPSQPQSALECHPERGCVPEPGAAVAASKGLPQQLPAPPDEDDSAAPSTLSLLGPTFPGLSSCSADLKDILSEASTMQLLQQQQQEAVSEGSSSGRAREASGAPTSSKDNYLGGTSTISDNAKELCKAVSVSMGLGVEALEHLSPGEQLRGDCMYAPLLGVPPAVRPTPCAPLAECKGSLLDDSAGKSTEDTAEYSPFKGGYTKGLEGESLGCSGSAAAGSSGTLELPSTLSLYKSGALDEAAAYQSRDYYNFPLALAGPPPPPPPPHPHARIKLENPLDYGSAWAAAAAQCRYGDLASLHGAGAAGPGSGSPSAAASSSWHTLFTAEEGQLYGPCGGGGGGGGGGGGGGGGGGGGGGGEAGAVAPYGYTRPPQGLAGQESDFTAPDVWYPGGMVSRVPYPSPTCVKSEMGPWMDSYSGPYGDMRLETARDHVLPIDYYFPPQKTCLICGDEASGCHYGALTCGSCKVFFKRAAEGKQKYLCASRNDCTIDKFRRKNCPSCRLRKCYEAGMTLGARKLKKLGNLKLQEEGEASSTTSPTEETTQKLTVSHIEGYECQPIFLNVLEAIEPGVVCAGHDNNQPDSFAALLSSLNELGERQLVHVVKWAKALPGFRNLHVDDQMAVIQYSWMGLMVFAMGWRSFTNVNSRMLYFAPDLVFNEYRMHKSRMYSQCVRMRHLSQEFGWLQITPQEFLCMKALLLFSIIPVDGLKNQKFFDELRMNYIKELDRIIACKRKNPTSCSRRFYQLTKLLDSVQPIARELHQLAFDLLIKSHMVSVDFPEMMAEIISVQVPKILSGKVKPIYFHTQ
# Method: (§1) Cells were grown on 24-well glass bottom plate (Cellvis, P24-1.5H-N) and images were taken with the Leica TCS SP8 confocal microscopy system using a 100× oil objective (NA=1.4). Cells were imaged on a heated stage (37° C.) and supplemented with warmed (37° C.) humidified air. The microscope was enclosed in an incubation chamber heated to 37° C.
# (§2) For compounds treatment assay, LNCaP cells were transfected with an expression vector for AR (AR or AR F877L/T878A)-mEGFP using steroid hormone-free and phenol red-free RPMI media for 24 hours before compound treatment. After 10 μM compounds treatment for 3 hour, LNCaP cells were added with 1 nM DHT. For ligand-independent AR V7-mEGFP expressing LNCaP cells, starvation step is skipped and compounds were added 12 hours after transfection. The final concentration of DMSO was 0.1%. Cells were subjected to microscopic observation every 30 mins after DHT/compounds were added.
# (§3) Data was analyzed by images collected from 100 representative fields in each group. The spots quantification was performed based on the area and intensity of the spots through green (AR-mEGFP) channel. Fluorescent images were processed and assembled into figures using LAS X (Leica) and Fiji.
# (§4) After 10 μM compounds treatment for 3 hour, LNCaP cells were added with 1 nM DHT. […]
# AR V7 = target: T2, AR V7 (Homo sapiens, UniProt P10275); assay: Live-cell imaging of AR puncta (LLPS) in LNCaP cells, AR V7-mEGFP; assay type: cell-based; design: expressed in transfected cells; host or cells: LNCaP; conditions: 10 μM compound, no DHT
# T2 sequence (P10275 1-644 isoform P10275-3): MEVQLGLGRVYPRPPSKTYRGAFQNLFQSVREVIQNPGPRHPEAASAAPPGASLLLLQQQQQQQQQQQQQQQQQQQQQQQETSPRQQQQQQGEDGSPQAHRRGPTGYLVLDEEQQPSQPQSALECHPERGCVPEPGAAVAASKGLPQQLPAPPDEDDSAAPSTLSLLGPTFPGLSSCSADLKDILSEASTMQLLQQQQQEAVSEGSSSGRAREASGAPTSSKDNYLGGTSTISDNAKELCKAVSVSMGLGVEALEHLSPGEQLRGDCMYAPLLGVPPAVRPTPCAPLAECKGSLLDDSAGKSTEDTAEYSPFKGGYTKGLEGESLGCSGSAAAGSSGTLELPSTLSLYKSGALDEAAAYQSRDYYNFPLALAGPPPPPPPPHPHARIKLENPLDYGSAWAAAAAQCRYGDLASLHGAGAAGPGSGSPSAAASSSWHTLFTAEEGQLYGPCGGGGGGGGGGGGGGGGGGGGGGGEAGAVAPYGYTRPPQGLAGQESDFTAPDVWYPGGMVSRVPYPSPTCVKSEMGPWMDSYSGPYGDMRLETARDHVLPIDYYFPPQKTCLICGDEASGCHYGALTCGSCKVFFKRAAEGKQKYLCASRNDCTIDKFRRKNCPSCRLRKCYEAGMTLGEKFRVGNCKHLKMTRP
# Method: as §1, §2, §3, §4
smiles,measurement,setting,value
"CC(C)(c1ccc(C#Cc2cnc(NS(C)(=O)=O)nc2)cc1)c1cc(Cl)c(OCCCl)c(C#N)c1 [Compound 60, N-(5-((4-(2-(3-chloro-4-(2-chloroethoxy)-5-cyanophenyl)propan-2-yl)phenyl)ethynyl)pyrimidin-2-yl)methanesulfonamide]",puncta formation / LLPS of enzalutamide-resistant AR mutant F877L/T878A,AR F877L/T878A,could suppress the phase separation; also recorded: abolished the puncta formation; also recorded: impaired the LLPS
same,puncta formation / LLPS of AR V7,AR V7,could suppress the phase separation; also recorded: abolished the puncta formation; also recorded: significantly impaired the LLPS
